Source: patent US20250235543A1, “MODIFIED PROTEINS AND PROTEIN DEGRADERS” (Cullgen (Shanghai), Inc., priority 2021, published 2025)

Tests used:
BRD4 [1] = target: T1, BRD4 (Homo sapiens, UniProt O60885); experiment: Immunoblotting of BRD4 protein levels in multiple cell lines; assay type: cell-based; conditions: Daudi, SU-DHL-4, or MDA-MB-231 cells, 8 hours
T1 construct: endogenous in cells; host or cells: Daudi, SU-DHL-4, MDA-MB-231
Protocol: Daudi, SU-DHL-4, or MDA-MB-231 cells were treated with CPD-253 at indicated concentrations for 8 hours.
Cultured cells were washed with cold PBS once and lysed in cold RIPA buffer supplemented with protease inhibitors and phosphatase inhibitors (Beyotime Biotechnology). The solutions were then incubated at 4° C. for 30 min with gentle agitation to fully lysed cells. Cell lysates were centrifuged at 13,000 rpm for 10 min at 4° C. and pellets were discarded. Total protein concentrations in the lysates were determined following BCA assays (Beyotime Biotechnology). Cell lysates were mixed with Laemmli loading buffer and heated at 99° C. for 5 min. Proteins were resolved on SDS-PAGE and visualized using Western ECL Substrate kits on a ChemiDoc MP Imaging system (Bio-Rad). Protein bands were quantitated using the Image Lab software provided by Bio-Rad.

BRD4 [2] = target: T1, BRD4; experiment: Immunoblot of BRD4 protein levels in Daudi, SU-DHL-4 or MDA-MB-231 cells; assay type: cell-based; conditions: SU-DHL-4 or MDA-MB-231 cell lines, 8 hours, dose range
Description: Additional exemplary heterobifunctional compounds were designed to modulate the protein levels of either P300/CBP, or BRD4, and characterized in multiple cell lines. […] Taken together, DDB1 ligands conjugating with different target ligands may modulate the cellular target protein levels of cyclin D, CDK4/6, P300/CBP and BRD4.

Question: `Cc1nc(NC(=O)c2ccccc2NC(=O)CCCCCCCCCCCNCCNC(=O)C[C@@H]2N=C(c3ccc(Cl)cc3)c3c(sc(C)c3C)-n3c(C)nnc32)sc1C` [CPD-253, (S)-2-(12-((2-(2-(4-(4-Chlorophenyl)-2,3,9-trimethyl-6H-thieno[3,2-f][1,2,4]triazolo[4,3-a][1,4]diazepin-6-yl)acetamido)ethyl)amino)dodecanamido)-N-(4,5-dimethylthiazol-2-yl)benzamide] was tested. Which BRD4 protein levels (BRD4 [1]) did it give?
Answer: reduced BRD4 protein levels in a concentration-dependent manner

Question: What about the “reduction of BRD4 protein levels” value (BRD4 [2]) of the same compound?
Answer: dramatically reduce
